Laboratory results: ChEMBL document CHEMBL1255527, “Structure-activity relationships of tulipalines, tuliposides, and related compounds as inhibitors of MurA” (Bioorg Med Chem Lett, 2010)
In brackets after ≈: the same amount, converted by molar mass. Activity calls are given as the source filed them. No cut-off for these calls is given here.

Key:
[1] = tested on: Escherichia coli BL21 [C115D]; assay: Inhibition of Escherichia coli MurA C115D mutant at 25 uM
Escherichia coli [2] = assay: Antimicrobial activity against Escherichia coli BL21 assessed as growth inhibition at 200 uM in presence of minimum medium; format: functional
Escherichia coli [3] = assay: Antimicrobial activity against Escherichia coli BL21 assessed as growth inhibition at 200 uM after 24 hrs; format: functional; details: for inhibition at 200 µM: BL21, BL21, 24 h
Escherichia coli BL21 = assay: Inhibition of Escherichia coli MurA; parameters: concentration or dose not given beside the values
[4] = Inhibition of Escherichia coli MurA at 25 uM; parameters: species or system Escherichia coli BL21
Escherichia coli [5] = assay: Antimicrobial activity against Escherichia coli BL21 expressing MurA C115D mutant assessed as growth inhibition at 200 uM in presence of kanamycin; format: functional
Escherichia coli [6] = assay: Antimicrobial activity against Escherichia coli BL21 assessed as growth inhibition at 200 uM in presence of IPTG; format: functional
Escherichia coli [7] = assay: Antimicrobial activity against Escherichia coli BL21 expressing MurA C115D mutant assessed as growth inhibition at 200 uM after 20 hrs in presence of kanamycin and 0.5 mM IPTG; format: functional
Escherichia coli [8] = assay: Antimicrobial activity against Escherichia coli BL21 expressing MurA C115D mutant assessed as growth inhibition at 200 uM after 20 hrs in presence of kanamycin and 1 mM IPTG; format: functional
Escherichia coli [9] = assay: Antimicrobial activity against Escherichia coli BL21 after 24 hrs; format: functional; details: BL21, 24 h
[10] = Electrophilicity, glutathione reactivity of the compound assessed as half life; format: physicochemical; details: glutathione (reaction with glutathione)

| SMILES | inhibition [1] | inhibition (Escherichia coli BL21; concentration not given here) | IC50 [4] | inhibition (Escherichia coli BL21) | inhibition at 200 µM (Escherichia coli [2]) | inhibition at 200 µM (Escherichia coli [3]) | inhibition (Escherichia coli [2]) | inhibition (Escherichia coli [3]) | Activity (Escherichia coli [5]) | Activity (Escherichia coli [6]) | Activity (Escherichia coli [7]) | Activity (Escherichia coli [8]) | MBC (Escherichia coli [9]) | MIC (Escherichia coli [9]) | half-life [10] |
| --- | --- | --- | --- | --- | --- | --- | --- | --- | --- | --- | --- | --- | --- | --- | --- |
| C=C1C(=O)OCC1O (racemic) [(+/-)-TULIPALINE B] | inactive | 97% | 2 µM |  | 93% | 62% |  |  | inactive | inactive | inactive | inactive | 200 µM (≈ 22.8 µg/mL) | 12.5 µM (≈ 1.43 µg/mL) |  |
| C=C(C(=O)OC)C(O)C1COC(C)(C)O1 (centres undefined) | inactive |  |  | inactive |  |  | inactive | inactive |  |  |  |  |  |  |  |
| C=C(C(=O)O)C(O)CO (centres undefined) | inactive | 87% | 8.6 µM |  | 100% | 18% |  |  | inactive | inactive | inactive | inactive | 25 µM (≈ 3.3 µg/mL) | 1.56 µM (≈ 0.206 µg/mL) | < 7 h |
| C=C1C(=O)O[C@@H]2/C=C(\CO)CC/C=C(\C)C[C@H](OC(=O)C(=C)[C@H](O)CO)[C@@H]12 [CNICIN] | inactive | 97% | 16.7 µM |  | 92% | 19% |  |  | inactive | inactive | inactive | inactive | 200 µM (≈ 75.7 µg/mL) | 25 µM (≈ 9.46 µg/mL) |  |
| C=C(CP(=O)(O)O)C(=O)OC | inactive |  |  | inactive |  |  | inactive | inactive |  |  |  |  |  |  |  |
| C=C(CP(=O)(OCC)OCC)C(=O)OC | inactive | 20% |  |  |  |  | inactive | inactive |  |  |  |  |  |  |  |
| C=C(C(=O)OC)C(OC(C)=O)C(O)CO (centres undefined) | 10% | 79% | 4.5 µM |  | 98% | 30% |  |  |  |  |  |  |  |  |  |
| C=C(CP(=O)(O)O)C(=O)O | inactive | 13% |  |  |  |  | inactive | inactive |  |  |  |  |  |  |  |
| C[C@@H]1O[C@@H]1P(=O)(O)O [FOSFOMYCIN] | inactive | 99% | 0.1 µM |  | 96% | 100% |  |  | inactive | inactive | Active | Active | 200 µM (≈ 27.6 µg/mL) | 50 µM (≈ 6.9 µg/mL) | > 60 h |

Now from value to molecule, other results behind:

| inhibition [1] | inhibition (Escherichia coli BL21; concentration not given here) | IC50 [4] | inhibition (Escherichia coli BL21) | SMILES | inhibition at 200 µM (Escherichia coli [2]) | inhibition at 200 µM (Escherichia coli [3]) | inhibition (Escherichia coli [2]) | inhibition (Escherichia coli [3]) | Activity (Escherichia coli [5]) | Activity (Escherichia coli [6]) | Activity (Escherichia coli [7]) | Activity (Escherichia coli [8]) | MBC (Escherichia coli [9]) | MIC (Escherichia coli [9]) | half-life [10] |
| --- | --- | --- | --- | --- | --- | --- | --- | --- | --- | --- | --- | --- | --- | --- | --- |
| 18% | 85% | 10.4 µM |  | C=C1C(=O)OC(CBr)C1O (centres undefined) | 103% | 84% |  |  |  |  |  |  |  |  |  |
| inactive |  |  | inactive | C=C(C(=O)O)C(O)C(O)CO (centres undefined) |  |  | inactive | inactive |  |  |  |  |  |  |  |
| inactive | 11% |  |  | C=C(CCO)C(=O)O[C@@H]1O[C@H](CO)[C@@H](O)[C@H](O)[C@H]1O |  |  | inactive | inactive |  |  |  |  |  |  |  |
| inactive | 74% | 6.6 µM |  | C=C1C(=O)OC(CO)C1O (centres undefined) | 102% | 26% |  |  |  |  |  |  |  |  |  |
| inactive | 84% | 5 µM |  | C=C(C(=O)O[C@@H]1O[C@H](CO)[C@@H](O)[C@H](O)[C@H]1O)[C@@H](O)CO [1-TULIPOSIDE B] | 97% | 64% |  |  |  |  |  |  | 50 µM (≈ 14.7 µg/mL) | 6.25 µM (≈ 1.84 µg/mL) |  |
| inactive |  |  | inactive | C=C(CO)C(=O)OC |  |  | inactive | inactive |  |  |  |  |  |  |  |
| inactive | 17% |  |  | C=C1CC(CO)OC1=O (centres undefined) | 47% |  |  | inactive |  |  |  |  |  |  |  |
| inactive | 55% |  |  | C=C(CBr)C(=O)OC [METHYL BROMOMETHYL ACRYLATE] | 101% | 20% |  |  |  |  |  |  |  |  |  |
| 10% | 77% | 6.3 µM |  | C=C(C(=O)OC)C(O)C(O)CO (centres undefined) |  | 17% |  |  |  |  |  |  |  |  |  |
| inactive |  |  | inactive | C=C(CCO)C(=O)O |  |  | inactive |  |  |  |  |  |  |  |  |
| inactive |  |  | inactive | C=C1CCOC1=O [TULIPALINE A] |  | 5% | inactive |  |  |  |  |  |  |  |  |
| inactive |  |  | inactive | C=C(CO)C(=O)O |  |  | inactive | inactive |  |  |  |  |  |  | > 60 h |
| inactive |  |  | inactive | C=C1CC(COC(C)=O)OC1=O (centres undefined) | 74% |  |  | inactive |  |  |  |  |  |  |  |
